According to US8076338B2, “Kinase modulators and methods of use” (Exelixis, Inc., priority 2004, dated 2011):
Like-named read-outs stand apart in the source and are kept apart here.

Assays:
[1] = molecular target: AktK (Homo sapiens, UniProt P31749); test: Luciferase-coupled chemiluminescence kinase assay (ATP consumption); format: biochemical; conditions: read-out: AKT-1 IC50
Procedure: (§1) One measure of inhibition is Ki. […] The Ki for a compound is determined from the IC50 based on three assumptions. First, only one compound molecule binds to the enzyme and there is no cooperativity. […] Third, the enzymatic rate of the enzyme-inhibitor complex is zero. The rate data (i.e. compound concentration) are fitted to the equation: […]
(§2) Luciferase-Coupled Chemiluminescence Assay Protocol
(§3) Kinase activity is measured as the percent of ATP consumed following the kinase reaction using luciferase-luciferin-coupled chemiluminescence. Reactions were conducted in 384-well white, medium binding microtiter plates (Greiner). Kinase reactions were initiated by combining test compounds, ATP and kinase in a 20 uL volume. The reaction mixture was incubated at ambient temperature for 3 hrs. For p70S6K and/or AktK, 2.5-5 nM of the enzyme was pre-incubated with compound in 20 mM Tris pH 7.5, 10 mM MgCl2, 0.03% TX-100, and 1 mM DTT for 30 minutes at room temperature. Following the kinase reaction, a 20 μL aliquot of luciferase-luciferin mix was added and the chemiluminescence signal measured using a Victor^2 plate reader (Perkin Elmer). The luciferase-luciferin mix contained 50 mM HEPES, pH 7.8, 67 mM oxalic acid (pH 7.8), 5 (or 50) mM DTT, 0.4% Triton X-100, 0.25 mg/mL coenzyme A, 63 μM AMP, 28 μg/1 mL luciferin and 40,000 units/mL luciferase. Total ATP consumption was limited to 25-60% and the IC50 values correlate well with those determined by radiometric assays.

[2] = molecular target: p70S6K (Homo sapiens, UniProt P23443); test: as above; format: biochemical
p70S6K, sequence (P23443 whole entry): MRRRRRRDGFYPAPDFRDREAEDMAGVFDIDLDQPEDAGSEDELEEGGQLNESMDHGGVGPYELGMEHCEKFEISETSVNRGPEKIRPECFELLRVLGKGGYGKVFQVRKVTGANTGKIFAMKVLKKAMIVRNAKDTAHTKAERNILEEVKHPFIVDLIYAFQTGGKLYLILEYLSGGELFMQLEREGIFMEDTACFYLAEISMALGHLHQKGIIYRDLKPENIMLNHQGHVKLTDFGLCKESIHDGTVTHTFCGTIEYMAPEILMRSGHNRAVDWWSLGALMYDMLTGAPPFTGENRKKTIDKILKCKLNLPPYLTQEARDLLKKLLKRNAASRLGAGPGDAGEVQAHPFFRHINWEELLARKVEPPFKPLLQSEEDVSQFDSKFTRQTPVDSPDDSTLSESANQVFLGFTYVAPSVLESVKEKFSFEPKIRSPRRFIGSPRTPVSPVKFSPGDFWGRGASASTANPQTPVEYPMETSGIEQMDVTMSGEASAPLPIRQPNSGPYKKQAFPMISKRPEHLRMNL
Procedure: as §1, §2, §3

AktK, sequence (P31749 whole entry): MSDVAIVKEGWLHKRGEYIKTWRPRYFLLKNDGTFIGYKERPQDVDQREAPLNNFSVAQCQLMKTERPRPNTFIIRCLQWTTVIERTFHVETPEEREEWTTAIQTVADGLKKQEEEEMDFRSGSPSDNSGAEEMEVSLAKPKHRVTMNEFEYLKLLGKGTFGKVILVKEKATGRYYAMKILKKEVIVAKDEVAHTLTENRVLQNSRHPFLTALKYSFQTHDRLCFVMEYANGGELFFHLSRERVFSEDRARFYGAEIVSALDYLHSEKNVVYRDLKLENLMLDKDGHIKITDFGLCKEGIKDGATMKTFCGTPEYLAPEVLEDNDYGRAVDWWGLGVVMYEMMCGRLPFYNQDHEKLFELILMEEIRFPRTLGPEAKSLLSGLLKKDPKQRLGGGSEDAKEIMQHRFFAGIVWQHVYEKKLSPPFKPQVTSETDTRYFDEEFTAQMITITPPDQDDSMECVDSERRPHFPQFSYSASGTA

CCc1n[nH]c2ncnc(N3CCN(c4cc(Cl)cc(OCCCN5CCOCC5)c4C)CC3)c12 [Entry 26, 4-(4-{5-chloro-2-methyl-3-[(3-morpholin-4-ylpropyl)oxy]phenyl}piperazin-1-yl)-3-ethyl-1H-pyrazolo[3,4-d]pyrimidine]
IC50 ([1]; Table 1, class symbols per key): 1000 to 10000 nM | IC50 ([2]; Table 1, class symbols per key): < 100 nM

CCN(CC)CCOc1cc(Cl)cc(N2CCN(c3ncnc4c3c(C(F)(F)F)nn4C(C)(C)C)CC2)c1C [Entry 33, 2-[(5-chloro-3-{4-[1-(1,1-dimethylethyl)-3-(tri-fluoromethyl)-1H-pyrazolo[3,4-d]pyrimidin-4-yl]piperazin-1-yl}-2-methylphenyl)oxy]-N,N-diethylethanamine]
IC50 ([1]; Table 1, class symbols per key): 1000 to 10000 nM | IC50 ([2]; Table 1, class symbols per key): 1000 to 10000 nM

C#Cc1cc(NCCN2CCCC2)c(C)c(N2CCN(c3ncnc4[nH]nc(Br)c34)CC2)c1 [Entry 237, 3-[4-(3-bromo-1H-pyrazolo[3,4-d]pyrimidin-4-yl)piperazin-1-yl]-5-ethynyl-2-methyl-N-(2-pyrrolidin-1-ylethyl)aniline]
IC50 ([1]; Table 1, class symbols per key): < 100 nM | IC50 ([2]; Table 1, class symbols per key): < 100 nM

Cc1c(NCCN2CCCC2)cc(OCC2CC2(F)F)cc1N1CCN(c2ncnc3[nH]nc(Br)c23)CC1 (centres unmarked) [Entry 270, 3-[4-(3-bromo-1H-pyrazolo[3,4-d]pyrimidin-4-yl)piperazin-1-yl]-5-{[(2,2-difluorocyclopro-pyl)methyl]oxy}-2-methyl-N-(2-pyrrolidin-1-ylethyl)aniline]
IC50 ([1]; Table 1, class symbols per key): < 100 nM | IC50 ([2]; Table 1, class symbols per key): < 100 nM

c1ccc(N2CCN(c3ncnc4[nH]cnc34)CC2)cc1 [Entry 293, 6-(4-phenylpiperazin-1-yl)-9H-purine]
IC50 [1]: ≥ 10000 nM | IC50 [2]: 1000 to 10000 nM

Cc1cccc(N2CCN(c3ncnc4[nH]nc(Br)c34)CC2C)c1 (centres unmarked) [Entry 158, 3-bromo-4-[3-methyl-4-(3-methylphenyl)piperazin-1-yl]-1H-pyrazolo[3,4-d]pyrimidine]
IC50 ([1]; Table 1, class symbols per key): 1000 to 10000 nM | IC50 ([2]; Table 1, class symbols per key): < 100 nM

CCS(=O)(=O)c1cc(NCCN2CCCC2)c(C)c(N2CCN(c3ncnc4[nH]nc(Br)c34)CC2)c1 [Entry 260, 3-[4-(3-bromo-1H-pyrazolo[3,4-d]pyrimidin-4-yl)piperazin-1-yl]-5-(ethylsulfonyl)-2-methyl-N-(2-pyrrolidin-1-ylethyl)aniline]
IC50 ([1]; Table 1, class symbols per key): < 100 nM | IC50 ([2]; Table 1, class symbols per key): < 100 nM

Cc1ccc(N2CCN(c3ncnc4[nH]nc(Br)c34)CC2)c(C)c1 [Entry 64, 3-bromo-4-[4-(2,4-dimethylphenyl)piperazin-1-yl]-1H-pyrazolo[3,4-d]pyrimidine]
IC50 ([1]; Table 1, class symbols per key): 1000 to 10000 nM | IC50 ([2]; Table 1, class symbols per key): 100 to 1000 nM

Cc1c(OCCN2CCN(C)CC2)cc(Cl)cc1N1CCN(c2ncnc3[nH]nc(C(F)(F)F)c23)CC1 [Entry 73, 4-[4-(5-chloro-2-methyl-3-{[2-(4-methylpiperazin-1-yl)ethyl]oxy}phenyl)piperazin-1-yl]-3-(trifluoromethyl)-1H-pyrazolo[3,4-d]pyrimidine]
IC50 ([1]; Table 1, class symbols per key): 100 to 1000 nM | IC50 ([2]; Table 1, class symbols per key): < 100 nM

Cc1c(NCCN2CCCC2)cc(C(=O)Nc2cccnc2)cc1N1CCN(c2ncnc3[nH]nc(Br)c23)CC1 [Entry 215, [4-(3-bromo-1H-pyrazolo[3,4-d]pyrimidin-4-yl)piperazin-1-yl]-4-methyl-N-pyridin-3-yl-5-[(2-pyrrolidin-1-ylethyl)amino]benzamide]
IC50 ([1]; Table 1, class symbols per key): < 100 nM | IC50 ([2]; Table 1, class symbols per key): < 100 nM

O=[N+]([O-])c1ccccc1N1CCN(c2ncnc3[nH]nc(Br)c23)CC1 [Entry 121, 3-bromo-4-[4-(2-nitrophenyl)piperazin-1-yl]-1H-pyrazolo[3,4-d]pyrimidine]
IC50 ([1]; Table 1, class symbols per key): ≥ 10000 nM | IC50 ([2]; Table 1, class symbols per key): 100 to 1000 nM

3-[4-(3-bromo-1H-pyrazolo[3,4-d]pyrimidin-4-yl)piperazin-1-yl]-5-{[(difluoromethyl)oxy]meth-yl}-2-methyl-N-(2-pyrrolidin-1-ylethyl)aniline [Entry 254]
IC50 ([1]; Table 1, class symbols per key): < 100 nM | IC50 ([2]; Table 1, class symbols per key): < 100 nM

Cc1c(NCCN2CCCC2)cc(OCCC(F)(F)F)cc1N1CCN(c2ncnc3[nH]nc(Br)c23)CC1 [Entry 284, 3-[4-(3-bromo-1H-pyrazolo[3,4-d]pyrimidin-4-yl)piperazin-1-yl]-2-methyl-N-(2-pyrrolidin-1-ylethyl)-5-[(3,3,3-trifluoropropyl)oxy]aniline]
IC50 ([1]; Table 1, class symbols per key): < 100 nM | IC50 ([2]; Table 1, class symbols per key): < 100 nM

COC(CCC(F)(F)F)(OC)c1cc(NCCN2CCCC2)c(C)c(N2CCN(c3ncnc4[nH]nc(Br)c34)CC2)c1 [Entry 292, 3-[4-(3-bromo-1H-pyrazolo[3,4-d]pyrimidin-4-yl)piperazin-1-yl]-2-methyl-N-(2-pyrrolidin-1-ylethyl)-5-[4,4,4-trifluoro-1,1-bis(methyloxy)butyl]aniline]
IC50 [1]: < 100 nM | IC50 [2]: < 100 nM

Cc1c(NCCN2CCCC2)cc(COCC(F)(F)F)cc1N1CCN(c2ncnc3[nH]nc(Br)c23)CC1 [Entry 280, 3-[4-(3-bromo-1H-pyrazolo[3,4-d]pyrimidin-4-yl)piperazin-1-yl]-2-methyl-N-(2-pyrrolidin-1-yl-ethyl)-5-{[(2,2,2-trifluoroethyl)oxy]methyl}aniline]
IC50 ([1]; Table 1, class symbols per key): < 100 nM | IC50 ([2]; Table 1, class symbols per key): < 100 nM

N#Cc1ccccc1N1CCN(c2ncnc3[nH]nc(Br)c23)CC1 [Entry 122, 2-[4-(3-bromo-1H-pyrazolo[3,4-d]pyrimidin-4-yl)piperazin-1-yl]benzonitrile]
IC50 ([1]; Table 1, class symbols per key): ≥ 10000 nM | IC50 ([2]; Table 1, class symbols per key): 100 to 1000 nM

Cc1ccc(Cl)cc1N1CCN(c2ncnc3[nH]nc(/C=C/C(=O)OC(C)(C)C)c23)CC1 [Entry 387, 1,1-dimethylethyl (2E)-3-{4-[4-(5-chloro-2-methylphenyl)piperazin-1-yl]-1H-pyrazolo[3,4-d]pyrimidin-3-yl}prop-2-enoate]
IC50 [1]: 1000 to 10000 nM | IC50 [2]: 100 to 1000 nM

Cc1ccc(Cl)cc1N1CCN(c2ncnc3[nH]nc(C#CCO)c23)CC1 [Entry 393, 3-{4-[4-(5-chloro-2-methylphenyl)piperazin-1-yl]-1H-pyrazolo[3,4-d]pyrimidin-3-yl}prop-2-yn-1-ol]
IC50 [1]: 100 to 1000 nM | IC50 [2]: < 100 nM

Cn1c(CCCO)nc2c(N3CCN(c4ncnc5[nH]nc(Br)c45)CC3)cc(C(F)(F)F)cc21 [Entry 273, 3-[4-[4-(3-bromo-1H-pyrazolo[3,4-d]pyrimidin-4-yl)piperazin-1-yl]-1-methyl-6-(trifluoromethyl)-1H-benzimidazol-2-yl]propan-1-ol]
IC50 ([1]; Table 1, class symbols per key): 100 to 1000 nM | IC50 ([2]; Table 1, class symbols per key): < 100 nM

Cc1c(NCCN2CCCC2)cc(C(=O)NOCC2CC2)cc1N1CCN(c2ncnc3[nH]nc(Br)c23)CC1 [Entry 258, 3-[4-(3-bromo-1H-pyrazolo[3,4-d]pyrimidin-4-yl)piperazin-1-yl]-N-[(cyclopropylmethyl)oxy]-4-methyl-5-[(2-pyrrolidin-1-ylethyl)amino]benzamide]
IC50 ([1]; Table 1, class symbols per key): 100 to 1000 nM | IC50 ([2]; Table 1, class symbols per key): < 100 nM

4-[4-(5-chloro-2-methylphenyl)piperazin-1-yl]-3-(2-methylpropyl)-1H-pyrazolo[3,4-d]pyrimidine [Entry 355]
IC50 [1]: 1000 to 10000 nM | IC50 [2]: < 100 nM

Cc1c(OCCN2CCCC2)cc(Cl)cc1N1CCN(c2ncnc3[nH]nc(C(C)C)c23)CC1 [Entry 137, 4-(4-{5-chloro-2-methyl-3-[(2-pyrrolidin-1-ylethyl)oxy]phenyl}piperazin-1-yl)-3-(1-methylethyl)-1H-pyrazolo[3,4-d]pyrimidine]
IC50 ([1]; Table 1, class symbols per key): 1000 to 10000 nM | IC50 ([2]; Table 1, class symbols per key): < 100 nM

Cc1c(CCCN2CCOCC2)cc(Cl)cc1N1CCN(c2ncnc3[nH]nc(Br)c23)CC1 [Entry 18, 3-bromo-4-{4-[5-chloro-2-methyl-3-(3-morpholin-4-ylpropyl)phenyl]piperazin-1-yl}-1H-pyrazolo[3,4-d]pyrimidine]
IC50 ([1]; Table 1, class symbols per key): 100 to 1000 nM | IC50 ([2]; Table 1, class symbols per key): < 100 nM

O=C1COc2ccc(-c3ccnc(N4CCN(c5ncnc6[nH]nc(Br)c56)CC4)n3)cc2N1 [Entry 144, 6-{2-[4-(3-bromo-1H-pyrazolo[3,4-d]pyrimidin-4-yl)piperazin-1-yl]pyrimidin-4-yl}-2H-1,4-benzoxazin-3(4H)-one]
IC50 ([1]; Table 1, class symbols per key): 1000 to 10000 nM | IC50 ([2]; Table 1, class symbols per key): 1000 to 10000 nM

CCc1n[nH]c2ncnc(N3CCN(c4cc(Cl)cc(OC)c4C)CC3)c12 [Entry 126, 4-{4-[5-chloro-2-methyl-3-(methyloxy)phenyl]piperazin-1-yl}-3-ethyl-1H-pyrazolo[3,4-d]pyrimidine]
IC50 ([1]; Table 1, class symbols per key): ≥ 10000 nM | IC50 ([2]; Table 1, class symbols per key): < 100 nM

CCN(CC)CCCc1cc(Cl)cc(N2CCN(c3ncnc4[nH]nc(C(F)(F)F)c34)CC2)c1C [Entry 87, 3-(5-chloro-2-methyl-3-{4-[3-(trifluoromethyl)-1H-pyrazolo[3,4-d]pyrimidin-4-yl]piperazin-1-yl}phenyl)-N,N-diethylpropan-1-amine]
IC50 ([1]; Table 1, class symbols per key): 100 to 1000 nM | IC50 ([2]; Table 1, class symbols per key): < 100 nM

3-bromo-4-{4-[5-{[2,3-difluoro-2-(fluorometh-yl)propyl]oxy}-2-methyl-3-(3-pyrrolidin-1-ylpropyl)phenyl]piperazin-1-yl}-1H-pyrazolo[3,4-d]pyrimidine [Entry 239]
IC50 ([1]; Table 1, class symbols per key): < 100 nM | IC50 ([2]; Table 1, class symbols per key): < 100 nM

CCc1n[nH]c2ncnc(N3CCN(c4cc(Cl)c(O)cc4C)CC3)c12 [Entry 381, 2-chloro-4-[4-(3-ethyl-1H-pyrazolo[3,4-d]pyrimidin-4-yl)piperazin-1-yl]-5-methylphenol]
IC50 [1]: 1000 to 10000 nM | IC50 [2]: < 100 nM
